Measured values published in patent US6391871B1 (priority 1996, dated 2002).
Where two headings read alike, the source gives them in different places.

Experiments:
NMDA receptors = format: cell-based, chick
Protocol: Potency rating=minimum concentration required to provide total protection against neurotoxic effects of NMDA (40 μM) in chick embryo retinal tissue tests
These experiments were performed using segments of chick embryo retina. This is a widely used model for studying the production and prevention of excitotoxic phenomena, since it is a simple and inexpensive preparation, and since chick tissue provides a better model of adult mammalian neurons than embryonic or juvenile mammalian tissue. All of the glutamate receptors that mediate excitotoxic phenomena are present in chick retinas, and are sensitive to excitotoxic stimulation. By contrast, in embryonic or juvenile mammalian tissue, various glutamate receptors are not fully matured and are not responsive in the same ways that occur in adult mammalian tissue.
In these tests, NMDA is introduced into the incubation medium in a concentration ([…]) sufficient to produce a fully developed excitotoxic lesion within 30 min, displaying acute degeneration and necrosis of the majority of neurons in the inner layers of the retina. The control retinas are incubated with NMDA alone, and experimental retinas are incubated with NMDA plus a test compound that is being evaluated for NMDA antagonist properties. […] All agents that prevent NMDA from hyperactivating NMDA receptors and thereby inducing an excitotoxic neurodegenerative reaction in the chick embryo retina are considered appropriate candidate drugs for preventing NMDA receptor hyperactivation and NMDA receptor burnout in the presymptomatic stages of Alzheimer's disease.
The concentration of the test compound required to prevent NMDA from inducing neuronal degeneration in the chick retina tissue is considered a measure of its expected potency for preventing NMDA receptor hyperactivation and NMDA receptor burnout in the presymptomatic stages of Alzheimer's disease.

cerebrocortical neurons = conditions: Olney et al 1989, Corso et al 1994; cited from earlier work
[1] = human anesthesia; cited from earlier work
vacuolated PC/RS neurons [2] = format: in vivo, rat; conditions: NBQX 15 mg/kg ip every 30 minutes, 4 injections, with MK-801 0.5 mg/kg; 4 h; ± SEM
Description: The rats were sacrificed four hours after the treatment began, and brain tissue from the PC/RS region was histologically evaluated, by previously described methods (Olney et al 1991) using double-blinded techniques. The number of vacuolated PC/RS neurons were counted on each side of the brain at a rostrocaudal level immediately posterior to where the corpus callosum ceases decussating across the midline (approximately 5.6 mm caudal to Bregma; see Paxinos & Watson, The Rat Brain in Stereotaxic Coordinates, 2nd ed., 1986).

vacuolated PC/RS neurons [3] = format: in vivo, rat; conditions: MK-801 ip
Protocol: To try to avoid that problem, a subsequent set of tests was carried out in which NBQX was microinjected directly into the PC/RS cortex, at one of two doses, either 0.025 or 0.25 nmols.

[4] = system: pyramidal neurons in layers III and IV of the posterior cingulate and retrosplenial (PC/RS) cortices; assay: In vivo assay of toxic side effects of NMDA antagonists (vacuole formation in PC/RS cortex); conditions: adult female rats, ip, sacrificed four hours after treatment
[5] = system: neurons in neocortical and limbic brain regions; assay: Histopathology of rat brain after PCP/pilocarpine treatment; format: in vivo; conditions: PCP 50 mg/kg i.p. combined with pilocarpine 10 mg/kg i.p.
Protocol: Adult female rats were injected subcutaneously with an NMDA antagonist drug, phencyclidine (PCP), at 50 milligrams of drug per kilogram of body weight (mg/kg sc), accompanied by a small dose of a muscarinic agonist, pilocarpine (10 mg/kg sc). At various times (4, 16, 24, 48, 72 and 96 hours) after treatment, the rats were anesthetized and perfused with fixative to allow their brains to be prepared for histological evaluation.
Degenerating neurons in various brain regions were also examined by electron microscopy, to obtain evidence for loss of synaptic complexes, and a computer-assisted cell plotting system was used to plot the location and count the frequency with which degenerating neurons were found in each brain region.
Massive loss of neurons throughout many neocortical and limbic brain regions is a hallmark characteristic of Alzheimer's disease. To establish that the NR/hypo mechanism results not only in cell injury but in cell death, the Applicants systematically examined the brains of rats 4 days following PCP/pilocarpine treatment. Sections prepared at 1 millimeter intervals from one side of the brain were stained, using hematoxylin and eosin; sections prepared at 1 millimeter intervals from the other side of the brain were stained using a silver impregnation stain. […]

neurons in rat brain = assay: PCP alone (minipump infusion or single high dose), brain damage in rats; format: in vivo
Description: Initially, the Applicants found it difficult to perform a detailed analysis of the full pattern and type of damage that can be induced in the adult rat brain by treatment with an NMDA antagonist because of technical problems that had to be overcome. Therefore, the Applicants tried several approaches. For example, it had been claimed (Ellison 1994) that when PCP is infused continuously in adult rats for five days, by a subcutaneously implanted minipump, it causes injury to nerve cells in several brain regions.
However, they found (Corso et al 1994) that even when a near lethal dose (50-80 mg/kg sc) was administered, a fully developed widespread pattern of damage could only be induced in a very small percentage of treated animals.

Row | SMILES | POTENCY RATING = minimum concentration required to provide total protection against neurotoxic effects of NMDA (NMDA receptors) [µM] | pathological changes in cerebral cortex / corticolimbic regions of adult rats (cerebrocortical neurons) | duration of action [1] | POTENCY RATING = minimum concentration required to provide total protection against neurotoxic effects of NMDA (NMDA receptors; NMDA 40 μM, chick embryo retinal tissue) [µM] | vacuolated neurons in PC/RS cortex, MK-801 plus NBQX (vacuolated PC/RS neurons [2]) | reduction of vacuoles, protected (ipsilateral) side, lower dosage (vacuolated PC/RS neurons [3]; NBQX 0.025 nmols microinjected into PC/RS cortex) | reduction of vacuoles, protected (ipsilateral) side, higher dosage (vacuolated PC/RS neurons [3]; NBQX 0.25 nmols microinjected into PC/RS cortex) | neurotoxic (vacuole) reaction in PC/RS cortex, drug by itself [4] | NR/hypo-induced brain damage, PCP combined with pilocarpine [5] | rats with a full pattern of damage out of 40 rats treated (neurons in rat brain; PCP 50 mg/kg i.p., single dose) | neuronal damage after continuous infusion by subcutaneous minipump (neurons in rat brain; adult rats, five days, same dose as Ellison 1994) | near lethal dose (neurons in rat brain; rats)
1 | CNC1(c2ccccc2Cl)CCCCC1=O (centres unmarked) [Ketamine] | 10 | cause pathological changes in the cerebral cortex of adult rats | about 15 minutes | – | – | – | – | – | – | – | – | –
2 | NS(=O)(=O)c1cccc2c1c([N+](=O)[O-])cc1nc(O)c(O)nc12 [NBQX] | – | – | – | 100 | 52±22.4 vacuolated neurons per microscopic section | about 20% | about 80% | did not cause vacuoles | – | – | – | –
3 | c1ccc(C2(N3CCCCC3)CCCCC2)cc1 [Phencyclidine] | 1 | produce pathological changes in various corticolimbic regions of the adult rat brain | – | – | – | – | – | – | reliably and consistently produced severe levels of NR/hypo-induced damage | 1 | produced no neuronal damage at all | 50-80 mg/kg sc
